Measurements taken from patent US20080076770A1, “SOLUBLE EPOXIDE HYDROLASE INHIBITORS” (Arete Therapeutics, Inc., priority 2006, published 2008).

Assays:
[1] = system: soluble epoxide hydrolase (sEH); test: Fluorescent assay for mouse and human soluble epoxide hydrolase (CMNPC substrate); assay type: biochemical; conditions: recombinant sEH, CMNPC substrate 5 μM, 30° C
Description: Fluorescent Assay for Mouse and Human Soluble Epoxide Hydrolase
Recombinant mouse sEH (MsEH) and human sEH (HsEH) were produced in a baculovirus expression system as previously reported. Grant et al., J. Biol. Chem., 268:17628-17633 (1993); Beetham et al., Arch. Biochem. Biophys., 305:197-201 (1993). The expressed proteins were purified from cell lysate by affinity chromatography. Wixtrom et al., Anal. Biochem., 169:71-80 (1988). Protein concentration was quantified using the Pierce BCA assay using bovine serum albumin as the calibrating standard. The preparations were at least 97% pure as judged by SDS-PAGE and scanning densitometry. They contained no detectable esterase or glutathione transferase activity which can interfere with the assay. The assay was also evaluated with similar results in crude cell lysates or homogenate of tissues.
The IC50s for each inhibitor were according to the following procedure: Substrate: [drawing 66]
Cyano(2-methoxynaphthalen-6-yl)methyl (3-phenyloxiran-2-yl)methyl carbonate (CMNPC; Jones P. D. et. al.; Analytical Biochemistry 2005; 343: pp. 66-75)
Bis/Tris HCl 25 mM pH 7.0 containing 0.1 mg/mL of BSA (buffer A)
CMNPC at 0.25 mM in DMSO.
Mother solution of enzyme in buffer A (Mouse sEH at 6 μg/mL and Human sEH at 5 μg/mL).
Inhibitor dissolved in DMSO at the appropriate concentration.
In a black 96 well plate, fill all the wells with 150 μL of buffer A.
Add 2 μL of DMSO in well A2 and A3, and then add 2 μL of inhibitor solution in A1 and A4 through A 12.
Add 150 μL of buffer A in row A, then mix several time and transfer 150 μL to row B. Repeat this row operation up to row H. The 150 μL removed from row H go to the trash.
Add 20 μL of buffer A in column 1 and 2, then add 20 μL of enzyme solution to column 3 to 12.
Incubate the plate for 5 minutes in the plate reader at 30° C.
During incubation prepare the working solution of substrate by mixing 3.68 mL of buffer A (4×0.920 mL) with 266 μL (2×133 μL (2×133 μL) of substrate solution).
At t=0, add 30 μL of working substrate solution with multi-channel pipette labeled “Briggs 303” and start the reading ([S]final: 5 μM).
Read with ex: 330 nm (20 nm) and em: 465 nm (20 nm) every 30 second for 10 minutes. The velocities are used to analyze and calculate the IC50s.

## O=C(Nc1ccc(-n2ccnc2)cc1)NC12CC3CC(CC(C3)C1)C2 [Compound 1, 1-Adamantan-1-yl-3-[4-(1H-imidazol-1-yl)-phenyl]-urea]
other
  melting point: 272 to 276 °C

## O=C(Nc1ccc(-n2ccnc2)cc1)Nc1ccc(C(F)(F)F)cc1 [Compound 11, 1-(4-(1H-imidazol-1-yl)-phenyl)-3-(4-trifluoromethyl-phenyl)-urea]
other
  melting point: 209 to 213 °C
[1]; compound concentration 50 nM
  % I: 92%

## O=C(Nc1ccc(N2CCCC2=O)cc1)Nc1ccc(C(F)(F)F)cc1 [Compound 15]
other
  melting point: 282 to 285 °C
[1]; compound concentration 50 nM
  % I: 74%

## O=C(Nc1ccc(-n2cnc(Cl)c2Cl)cc1)Nc1ccc(C(F)(F)F)cc1 [Compound 13, 1-[4-(4,5-dichloro-1H-imidazol-1-yl)-phenyl]-3-(4-trifluoromethyl-phenyl)-urea]
other
  melting point: 221 to 224 °C
[1]; compound concentration 50 nM
  % I: 95%

## O=C(Nc1ccc(C(F)(F)F)cc1)Nc1cccc(N2CCCC2=O)c1 [Compound 20, 1-[3-(2-Oxo-pyrrolidin-1-yl)-phenyl]-3-(4-trifluoromethyl-phenyl)-urea]
other
  melting point: 220 to 224 °C
[1]; compound concentration 50 nM
  % I: 84%

## O=C(Nc1ccc(N2CCCC2=O)cc1)NC12CC3CC(CC(C3)C1)C2 [Compound 5, 1-Adamantan-1-yl-3-[4-(2-oxo-pyrrolidin-1-yl)-phenyl]-urea]
other
  melting point: > 300 °C
[1]; compound concentration 50 nM
  % I: 82%

## O=C(Nc1cccc(N2CCCC2=O)c1)NC12CC3CC(CC(C3)C1)C2 [Compound 10, 1-Adamantan-1-yl-3-[3-(2-oxo-pyrrolidin-1-yl)-phenyl]-urea]
other
  melting point: 239 to 242 °C
[1]; compound concentration 500 nM
  % I: 88%

## Cc1nccn1-c1ccc(NC(=O)Nc2ccc(C(F)(F)F)cc2)cc1 [Compound 12, 1-[4-(2-methyl-1H-imidazol-1-yl)-phenyl]-3-(4-trifluoromethyl-phenyl)-urea]
other
  melting point: 234 to 238 °C
[1]; compound concentration 50 nM
  % I: 96%

## O=C(Nc1ccc(C(F)(F)F)cc1)Nc1cccc(N2CCOCC2)c1 [Compound 19, 1-(3-Morpholin-4-yl-phenyl)-3-(4-trifluoromethyl-phenyl)-urea]
other
  melting point: 240 to 244 °C
[1]; compound concentration 50 nM
  % I: 79%

## O=C(Nc1ccc(N2CCOCC2)cc1)Nc1ccc(C(F)(F)F)cc1 [Compound 14, 1-(4-Morpholin-4-yl-phenyl)-3-(4-trifluoromethyl-phenyl)-urea]
other
  melting point: 228 to 232 °C
[1]; compound concentration 50 nM
  % I: 87%
